Results taken from ChEMBL document CHEMBL1201862, “PubChem BioAssay data set” (2004).
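Cultured in 96-well plates, cells were exposed to test compound for 48 hours across five concentrations. GI50 = concentration required for 50% inhibition of growth.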 The source made the active and inactive calls. No stated cut-off is given here; in the data, active = GI50 up to about 1.1 µM and inactive = higher.

Columns and labels:
Experiment in all cases: NCI anticancer screen, dose series, 48 h
786-0 = tested on: 786-0
A549 = tested on: A549
EKVX = tested on: EKVX
K562 = tested on: K562
KM12 = tested on: KM12
M14 = tested on: M14
MOLT-4 = tested on: MOLT-4
NCI-H226 = tested on: NCI-H226
OVCAR-3 = tested on: OVCAR-3
OVCAR-5 = tested on: OVCAR-5
RPMI-8226 = tested on: RPMI-8226
RXF 393 = tested on: RXF 393
SF-539 = tested on: SF-539
SK-MEL-5 = tested on: SK-MEL-5
SK-OV-3 = tested on: SK-OV-3
SNB-19 = tested on: SNB-19
U-251 = tested on: U-251
HOP-62 = tested on: HOP-62

Measured: GI50

[N-]=[N+]=Nc1ccc(CCN2CCN(c3cccc(C(F)(F)F)c3)CC2)cc1I
inactive: 786-0 > 100 µM | A549 95.7 µM | EKVX > 100 µM | K562 52.6 µM | KM12 43.8 µM | M14 > 100 µM | MOLT-4 40.4 µM | NCI-H226 > 100 µM | OVCAR-3 78.9 µM | OVCAR-5 34 µM | RPMI-8226 13 µM | RXF 393 33.1 µM | SF-539 > 100 µM | SK-MEL-5 65.8 µM | SK-OV-3 > 100 µM | SNB-19 > 100 µM | U-251 > 100 µM

CCOC(=O)NN(C(=O)OCC)C(C(=O)c1ccc(Cl)cc1)=C1NCCN1
inactive: 786-0 > 100 µM | A549 > 100 µM | EKVX > 100 µM | HOP-62 > 100 µM | K562 > 100 µM | KM12 > 100 µM | M14 > 100 µM | MOLT-4 > 100 µM | NCI-H226 > 100 µM | OVCAR-3 > 100 µM | OVCAR-5 > 100 µM | RXF 393 > 100 µM | SF-539 > 100 µM | SK-MEL-5 > 100 µM | SK-OV-3 > 100 µM | SNB-19 > 100 µM | U-251 > 100 µM

CCOC(=O)[C@H](CCCNC(=O)OC(C)(C)C)NCc1ccc(OC)c(OC)c1
inactive: 786-0 > 100 µM | A549 > 100 µM | EKVX > 100 µM | HOP-62 > 100 µM | K562 > 100 µM | KM12 > 100 µM | M14 > 100 µM | MOLT-4 > 100 µM | NCI-H226 > 100 µM | OVCAR-3 > 100 µM | OVCAR-5 > 100 µM | RXF 393 > 100 µM | SF-539 > 100 µM | SK-MEL-5 > 100 µM | SK-OV-3 > 100 µM | SNB-19 > 100 µM | U-251 > 100 µM

CCOC(=O)NC(=O)c1cn(-c2ccc(CCOC(=O)NCCCCCCNC(=O)OCCc3ccc(-n4c(=O)[nH]cc(C(=O)NC(=O)OCC)c4=O)cc3)cc2)c(=O)[nH]c1=O
inactive: 786-0 48.5 µM | A549 > 100 µM | EKVX 53.2 µM | HOP-62 37.6 µM | K562 > 100 µM | KM12 > 100 µM | M14 > 100 µM | MOLT-4 58.1 µM | OVCAR-3 > 100 µM | OVCAR-5 > 100 µM | RPMI-8226 > 100 µM | RXF 393 > 100 µM | SF-539 23.7 µM | SK-MEL-5 78.7 µM | SK-OV-3 47.6 µM | SNB-19 23.2 µM | U-251 33.2 µM

Cn1nc(-c2ccccc2)c(C(=O)/C=C/c2ccccc2)c(N2CCCCC2)c1=O
inactive: 786-0 12.5 µM | A549 9.86 µM | EKVX > 100 µM | HOP-62 3.91 µM | K562 4.7 µM | M14 47.6 µM | MOLT-4 2.36 µM | RPMI-8226 4.22 µM | RXF 393 12.8 µM | SF-539 41.5 µM | SK-MEL-5 17.5 µM | SK-OV-3 > 100 µM | SNB-19 > 100 µM | U-251 > 100 µM

CCCCc1c2c(nc3c1CCC/C3=C\c1ccccc1)/C(=C/c1ccccc1)CCC2
inactive: 786-0 > 100 µM | A549 > 100 µM | EKVX > 100 µM | HOP-62 > 100 µM | K562 > 100 µM | KM12 > 100 µM | M14 > 100 µM | MOLT-4 > 100 µM | NCI-H226 > 100 µM | OVCAR-3 > 100 µM | RPMI-8226 > 100 µM | SF-539 > 100 µM | SK-MEL-5 > 100 µM | SK-OV-3 > 100 µM | SNB-19 > 100 µM | U-251 > 100 µM

CCOC(=O)C1(C)C2=CC=C(O2)C(C)(C)C2=CC=C(O2)C(C)(C)C2=CC=C(O2)C(C)(C)C2=CC=C1O2
inactive: 786-0 > 100 µM | A549 42.6 µM | EKVX > 100 µM | HOP-62 > 100 µM | K562 > 100 µM | KM12 > 100 µM | MOLT-4 53.5 µM | NCI-H226 > 100 µM | OVCAR-5 > 100 µM | RXF 393 > 100 µM | SF-539 > 100 µM | SK-OV-3 > 100 µM | SNB-19 > 100 µM | U-251 48.3 µM

COc1ccc2c(c1)c1c3n2CCNN=C3CCC1
inactive: 786-0 > 100 µM | A549 > 83.8 µM | EKVX > 100 µM | HOP-62 > 74.3 µM | K562 > 81.1 µM | KM12 > 100 µM | M14 > 100 µM | MOLT-4 > 37.5 µM | NCI-H226 > 100 µM | OVCAR-3 > 100 µM | OVCAR-5 > 57.4 µM | RPMI-8226 29.4 µM | SF-539 > 77.4 µM | SK-MEL-5 > 100 µM | SK-OV-3 > 75.2 µM | SNB-19 > 100 µM | U-251 > 48.5 µM

C[Si](C)(C)C(CCCCSc1ccccc1)(Sc1ccccc1)Sc1ccccc1
inactive: 786-0 > 100 µM | A549 > 100 µM | EKVX > 100 µM | K562 > 100 µM | KM12 > 100 µM | MOLT-4 > 100 µM | RPMI-8226 > 100 µM | RXF 393 > 100 µM | SF-539 > 100 µM | SK-MEL-5 > 100 µM | SK-OV-3 > 100 µM | SNB-19 > 100 µM | U-251 85.5 µM

Oc1cc(C2OCCCO2)cc(O)c1O
inactive: 786-0 > 100 µM | A549 > 100 µM | EKVX > 100 µM | HOP-62 > 100 µM | K562 > 100 µM | KM12 > 100 µM | M14 > 100 µM | MOLT-4 > 100 µM | NCI-H226 > 100 µM | OVCAR-3 > 100 µM | OVCAR-5 > 100 µM | RPMI-8226 > 100 µM | SF-539 > 100 µM | SK-MEL-5 > 100 µM | SK-OV-3 > 100 µM | SNB-19 > 100 µM | U-251 > 100 µM

CC(C)(C)c1ccc(OC2CCO2)cc1 (stereo not drawn)
inactive: 786-0 28.7 µM | A549 61.2 µM | EKVX 35.1 µM | HOP-62 > 100 µM | K562 17.3 µM | KM12 25.9 µM | M14 42.6 µM | MOLT-4 38.1 µM | NCI-H226 27.9 µM | OVCAR-3 34.5 µM | OVCAR-5 32.7 µM | RPMI-8226 22.1 µM | SF-539 37.6 µM | SK-MEL-5 36.3 µM | SK-OV-3 > 100 µM | SNB-19 52.2 µM | U-251 18.7 µM

COc1cc(/C=C\c2ccccn2)cc(OC)c1OC
inactive: 786-0 > 100 µM | A549 85.7 µM | EKVX 48.5 µM | HOP-62 79.4 µM | K562 32.1 µM | KM12 63.8 µM | M14 55.6 µM | MOLT-4 61.9 µM | NCI-H226 > 100 µM | OVCAR-3 > 100 µM | OVCAR-5 > 100 µM | RPMI-8226 30.6 µM | RXF 393 > 100 µM | SF-539 > 100 µM | SK-MEL-5 57.5 µM | SNB-19 > 100 µM | U-251 > 100 µM
